Data as given in patent US20130225671A1, “Methods of Treating Seizure Disorders” (Massachusetts Institute of Technology, priority 2010, published 2013).
“Also recorded” adds a separate entry of the source. Marks after values point to notes of the source that are not given here.

Columns and labels:
[1] = test system: Fmr1 KO mouse; test: Audiogenic seizures (AGS) in Fmr1 KO and WT mice;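 as to all read-outs here: male WT and Fmr1 KO littermates aged P17-25 given a 2 min seizure-provoking stimulus, scored blind to genotype for wild running, clonic and tonic seizures and death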; details: for incidence of AGS: Example 1, vehicle KO 73%; for incidence of AGS / Clonic seizure incidence / Death incidence / Tonic seizure incidence / WR (wild running) incidence: i.p. 100 mg/kg SL 327 or 30 mg/kg Formula I; for Clonic seizure incidence / Death incidence / Tonic seizure incidence / WR (wild running) incidence: 1 h before stimulus; for AGS incidence: 1 h, vehicle KO about 74%
Method: One hour later, mice were exposed to a seizure-inducing stimulus for 2 minutes, and scored for four stages of AGS: wild running (WR; pronounced, undirected running and thrashing), clonic seizure (violent spasms accompanied by loss of balance), tonic seizure (postural rigidity in limbs), and death [35, 37, 39]. All animals were injected and scored blind to genotype.
AGS: Experiments were performed using male WT and Fmr1 KO littermates (P17-25) as described herein. […] Immediately prior to testing, mice were transferred to a quiet (about <60 dB ambient sound) room for 1 hour. Mice were then transferred to a transparent plastic test chamber and, after 1 minute of habituation, exposed to a 130 dB stimulus (recorded sampling of a modified personal alarm, RADIOSHACK model 49-1010) for about 2 minutes. Each testing session contained mice from both genotype and treatment groups. For each group, incidence of the following stages of AGS was calculated: wild running (WR; pronounced, undirected running and thRashing), clonic seizure (violent spasms accompanied by loss of balance), tonic seizure (postural rigidity in limbs), and death. All aspects of the experiments were performed blind to genotype.
For each mouse, four stages of increasing AGS severity were scored: wild running, clonic seizure, tonic seizure, or death[16].

[2] = test system: protein synthesis in WT and Fmr1 KO hippocampal slices; test: Protein synthesis in hippocampal slices (35S-Met/Cys metabolic labeling); type: cell-based, mouse
Method: Dorsal hippocampal slices were prepared from juvenile (postnatal day 25-32) WT and Fmr1 KO mice using the same metabolic labeling procedure described in [35]. Briefly, 500 μm slices were recovered in carbogenating, 32.5° C. ACSF (in mM: NaCl: 124, KCl: 3, NaH2PO4: 1.25, NaHCO3: 26, dextrose: 10, MgCl2: 1, CaCl2: 2, saturated with 95% O2 and 5% CO2), pre-incubated in actinomycin D (ActD, 25 μM) for 30 min to prevent transcription, and protein synthesis measured over 30 minutes via incorporation of a ^35S-labeled methionine/cysteine mix (^35S-Met/Cys).
Group I mGluR activate several signal pathways.
Mice: Fmr1 KO (Jackson Labs) and WT littermates, bred on the C57BL6 or FVB background strains, were group housed and maintained in a 12:12 h light:dark cycle. An In vitro hippocampal slice assay was used herein to recapitulate the exaggerated protein synthesis phenotype seen in the Fmr1 KO[6].
Metabolic labeling: Experiments were performed on male WT and Fmr1 KO mice (postnatal day 25-32), blind to genotype, as described herein. Briefly, 500 μm slices were recovered for 4 h in 32.5° C. […] After labeling, slices were homogenized, and labeled proteins isolated by TCA precipitation. Samples were read with a scintillation counter and also subjected to a protein concentration assay (BIO-RAD). Final data were expressed as counts per minute (CPM) per μg protein, normalized to the ^35S-Met/Cys ACSF used for incubation, and the average incorporation of all samples analyzed in that experiment.

[3] = test system: ERK1/2; test: ERK1/2 activation (phosphorylation) in hippocampal slices, immunoblotting; type: cell-based, mouse; details: for ERK1/2 activation (phosphorylation; WT veh = 100%): 1 hour
[4] = test system: Ras; test: Ras activation assay (Ras-GTP pull-down) in hippocampal slices; type: cell-based, mouse
Method: Ras activation assay: Slices (4-6 per animal) were prepared exactly as for metabolic labeling, and Ras-GTP isolated using the Active Ras Pull-Down and Detection kit (PIERCE) according to manufacturer's instructions.
Active (GTP-bound) Ras was isolated from homogenized slices using a GST-pull down assay, and compared to total Ras.

[5] = test system: MEK; details: read-out: MEK Enzyme IC50; cited from earlier work
[6] = test system: Malme-3M pERK; details: Malme-3M cells; cited from earlier work
[7] = test system: TNF-α; details: human whole blood, TPA-induced; cited from earlier work
[8] = test system: IL-1β; details: human whole blood, TPA-induced; cited from earlier work
[9] = test system: IL-6; details: human whole blood, TPA-induced; cited from earlier work
[10] = test system: Cytochrome p450 (5 major isoforms); details: read-out: Cytochrome p450 Inhibition-IC50; cited from earlier work
[11] = test system: ~200 other kinases; details: ~200 other kinases at 1 μM; cited from earlier work
[12] = test system: 25 receptors; details: cited from earlier work
[13] = test system: Rat carrageenan paw edema; details: PO, once; cited from earlier work
[14] = test system: Rat Collagen-Induced Arthritis; details: PO, QD×7; cited from earlier work
[15] = test system: rat adjuvant-induced arthritis; details: PO, QD×7; cited from earlier work
[16] = Fmr1 KO mice, C57BL6, 30 mg/kg Formula I acid i.p.
[17] = Fmr1 KO hippocampal slices, 100 μM Formula I in lactone form (Example 1)
[18] = Fmr1 KO hippocampal slices, 100 μM Formula I in lactone form (Example 1), listed as LOVASTATIN
[19] = Fmr1 KO hippocampal slices, 10 μM Formula I
[20] = Fmr1 KO hippocampal slices, 50 μM Formula I
[21] = WT hippocampal slices, 10 μM Formula I
[22] = WT hippocampal slices, 50 μM Formula I
[23] = WT hippocampal slices, 5 μM U0126

N#C/C(=C(\N)Sc1ccc(N)cc1)c1ccccc1C(F)(F)F [SL 327, alpha-[amino[(4-aminophenyl)thio]methylene]-2-(trifluoromethyl)benzeneacetonitrile]
incidence of AGS ([1]; Fmr1 KO mice): 0%
Clonic seizure incidence ([1]; Fmr1 KO mice): 0%*
Death incidence ([1]; Fmr1 KO mice): 0%
Tonic seizure incidence ([1]; Fmr1 KO mice): 0%*
WR (wild running) incidence ([1]; Fmr1 KO mice): 0%*
Clonic seizure incidence ([1]; WT mice): 0%*
Death incidence ([1]; WT mice): 0%
Tonic seizure incidence ([1]; WT mice): 0%
WR (wild running) incidence ([1]; WT mice): 0%*

CCC(C)C(=O)OC1CC(C)C=C2C=CC(C)C(CCC(O)CC(O)CC(=O)[O-])C21.[Na+] (stereo not drawn) [Formula I acid]
AGS severity (distribution of AGS scores) [1, 16]: attenuates AGS severity
AGS incidence [1, 16]: significantly reduces AGS incidence

Cc1cccc(C#Cc2ccccc2)n1 [MPEP]
protein synthesis (WT vehicle = 100%) ([2]; Fmr1 KO hippocampal slices, 50 μM MPEP, 5 minutes): 95±2%
protein synthesis (WT vehicle = 100%) ([2]; WT hippocampal slices, 50 μM MPEP, 5 minutes): 104±2%

CC[C@H](C)C(=O)O[C@H]1C[C@@H](C)C=C2C=C[C@H](C)[C@H](CC[C@@H]3C[C@@H](O)CC(=O)O3)[C@H]21 [Formula I, (1S,3R,7S,8S,8aR)-8-{2-[(2R,4R)-4-hydroxy-6-oxooxan-2-yl]ethyl}-3,7-dimethyl-1,2,3,7,8,8a-hexahydronaphthalen-1-yl-(2S)-2-methylbutanoate]
protein synthesis (WT veh = 100%) ([2]; Fmr1 KO hippocampal slices, 10 μM Formula I (acid form, Example 2)): 115±7%
protein synthesis (WT vehicle = 100%) [2, 17]: 104±2%
protein synthesis (WT vehicle = 100%) [2, 18]: can correct protein synthesis
protein synthesis (WT veh = 100%) ([2]; WT hippocampal slices, 10 μM Formula I (acid form, Example 2)): 103±4%
protein synthesis (WT veh = 100%) ([2]; WT hippocampal slices, 50 μM Formula I (acid form, Example 2)): 88±5%
ERK1/2 activation (phosphorylation; WT veh = 100%) [3, 19]: 90±6%
ERK1/2 activation (phosphorylation; WT veh = 100%) [3, 20]: 78±5%
ERK1/2 activation (WT vehicle = 100%) [3, 17]: 181±6%
ERK1/2 activation (WT vehicle = 100%) [3, 18]: reduce ERK1/2 activation
ERK1/2 activation (phosphorylation; WT veh = 100%) [3, 21]: 94±8%
ERK1/2 activation (phosphorylation; WT veh = 100%) [3, 22]: 84±5%
ERK1/2 activation (WT vehicle = 100%) ([3]; WT hippocampal slices, 100 μM Formula I in lactone form (Example 1)): 187±6%
ERK1/2 in hippocampal slices (in words) ([3]; hippocampal slices, Formula I acid form, FIGS. 2F and 2G): downregulates ERK1/2
active (GTP-bound) Ras compared to total Ras (WT veh = 100%) [4, 19]: 89±8%
active (GTP-bound) Ras compared to total Ras (WT veh = 100%) [4, 20]: 61±9%
active (GTP-bound) Ras compared to total Ras (WT veh = 100%) [4, 21]: 87±14%
active (GTP-bound) Ras compared to total Ras (WT veh = 100%) [4, 22]: 61±12%
Ras activation in hippocampal slices (in words) ([4]; hippocampal slices, Formula I acid form, FIGS. 2D and 2E): inhibits Ras activation
AGS severity (distribution of AGS scores) [1, 16]: significantly lessens the severity of seizures
AGS incidence [1, 16]: about 28%
AGS severity (distribution of AGS scores) ([1]; Fmr1 KO mice, C57BL6, 30 mg/kg Formula I lactone i.p.): significantly reduces AGS severity
AGS severity (distribution of AGS scores) ([1]; Fmr1 KO mice, C57BL6, 100 mg/kg Formula I acid i.p.): attenuates AGS severity
AGS severity (distribution of AGS scores) ([1]; Fmr1 KO mice, C57BL6, oral, 48 h feeding of 0.1% Formula I chow): significantly reduces AGS severity
incidence of AGS ([1]; Fmr1 KO mice): 21%
AGS severity (distribution of AGS scores) ([1]; Fmr1 KO mice, FVB, 30 mg/kg Formula I i.p., 30 mg/kg): similarly unaffected; also recorded: does not significantly reduce AGS severity
AGS severity (distribution of AGS scores) ([1]; Fmr1 KO mice, FVB, 100 mg/kg Formula I i.p., 100 mg/kg): significantly reduces AGS severity
Clonic seizure incidence ([1]; Fmr1 KO mice): 12%*
Death incidence ([1]; Fmr1 KO mice): 8%
Tonic seizure incidence ([1]; Fmr1 KO mice): 6%*
WR (wild running) incidence ([1]; Fmr1 KO mice): 21%*
Clonic seizure incidence ([1]; WT mice): 8%*
Death incidence ([1]; WT mice): 8%
Tonic seizure incidence ([1]; WT mice): 8%
WR (wild running) incidence ([1]; WT mice): 13%**

Cn1cnc2c(F)c(Nc3ccc(Br)cc3F)c(C(=O)NOCCO)cc21 [ARRY-162]
IC50 [5]: 12 nM
IC50 [6]: 11 nM
IC50 [7]: 23 nM
IC50 [8]: 21 nM
IC50 [9]: 21 nM
IC50 [10]: > 25000 nM
Kinase selectivity screen [11]: no activity
receptor screen [12]: clean
Rat carrageenan paw edema ED50 [13]: ~7 mg/kg
Rat Collagen-Induced Arthritis ED50 [14]: 3 mg/kg
rat adjuvant-induced arthritis ED50 [15]: 10 mg/kg

N#CC(=C(N)Sc1ccccc1N)C(C#N)=C(N)Sc1ccccc1N [Formula U0126, 1,4-diamino-2,3-dicyano-1,4-bis[2-aminophenylthio]butadiene]
protein synthesis (WT vehicle = 100%) [2, 23]: 94±6%
ERK1/2 activation (WT vehicle = 100%) [3, 23]: 15±3%
